# According to patent publication US20260256705A1, “LIPID NANOPARTICLE FORMULATIONS FOR VACCINES” (GLOBAL LIFE SCIENCES SOLUTIONS CANADA ULC, priority 2022, published 2026):
# Test system: Luciferase mRNA
# Assay: Intravenous protein replacement model, Luciferase mRNA LNP
# Format: in vivo, mice
# Settings: intravenous 0.1 mg/kg, four hours post administration
# Description: Two different LNPs according to embodiments of the invention were injected into mice intravenously at 0.1 mg/kg. The payload was Luciferase·mRNA (Trilink-CLEANCAP™ FLuc mRNA (5 moU), Cat #L-7202). The top row of photographs in FIG. 8 showing fluorescence at four hours post administration was achieved by intravenous administration of LNP comprising PNI 516 30%, DPSC 56%, cholesterol 12.5% and DMG-PEG 1.5%. The bottom row in FIG. 8, which is brighter, was achieved by LNP comprising PNI 580 30%, DSPC 56%, cholesterol 12.5%, and DMG-PEG-1.5%.
smiles,measurement,value
"CCCCCCCCC(CCCCCC)C(=O)O[C@@H]1[C@@H](OC(=O)C(CCCCCC)CCCCCCCC)CO[C@@H]1COC(=O)CCCN(C)C (stereo partly drawn) [PNI 580, (2R,3S,4S)-2-(((4-(dimethylamino)butanoyl)oxy)methyl)tetrahydrofuran-3,4-diyl bis(2-hexyldecanoate)]",protein expression in vivo (fluorescence),slightly more effective
